# From patent US20200062696A1, “COMPOSITIONS AND METHODS FOR INHIBITING RETICULON 4” (THE REGENTS OF THE UNIVERSITY OF CALIFORNIA, priority 2017, published 2020)
# What was measured:
# [1] = tested on: SW620 cells expressing GFP-tagged Sec61β; assay: ER morphology by fluorescence microscopy in SW620 cells expressing GFP-Sec61β; assay type: cell-based; settings: DKM 3-30 50 μM
# Protocol: FIG. 8. ER Morphology in SW620 Colorectal Cancer Cells. SW620 cells expressing GFP-tagged Sec61β were treated with DKM 3-30 (50 μM) for the indicated times and the ER (light gray/white) and nuclear (dark gray) morphology visualized by fluorescence microscopy.
# (§1) Fluorescence microscopy. SW620 and U2OS cells were transiently transfected with a plasmid encoding GFP-tagged Sec61β using fuGENE6 (Roche) according to the manufacturer's instructions. Transfected cells plated on poly-L-lysine treated coverslips were treated, washed in PBS, and fixed by incubation in 4% paraformaldehyde in PBS for 10 min. Fixed cells were washed extensively in PBS and nuclei stained by addition of 4′,6-diamidino-2-phenylindole (DAPI) (Thermo Fisher Scientific) for 10 min. Coverslips were mounted using Fluoromount-G (SouthernBiotech) and visualized using a DeltaVision Elite microscope outfitted with a 60× oil immersion objective. Acquired stacks of images of fixed cells were deconvolved and analyzed using SoftWoRx and ImageJ. For time-lapse imaging of live cells, transfected cells were plated on poly-L-lysine treated glass-bottom 4-well imaging chambers (Lab-Tek II; Thermo Fisher Scientific). Imaging was performed using a DeltaVision Elite microscope encased in a chamber that was maintained at 37° C. and was continuously perfused with humidified 5% CO2. Acquired images were analyzed using SoftWoRx and ImageJ.
# [2] = tested on: U2OS cells expressing GFP-tagged Sec61β; assay: ER morphology by fluorescence microscopy in U2OS cells expressing GFP-Sec61β; assay type: cell-based
# Protocol: as §1
# [3] = biological target: T1, pure human RTN4 protein (Homo sapiens, UniProt Q9NQC3); assay: Gel-based ABPP competition against IAyne labeling of pure human RTN4 protein; assay type: binding; settings: pure human RTN4 protein, gel-based ABPP
# T1 construct: purchased Fisher Scientific
# T1 sequence (Q9NQC3 1-1192): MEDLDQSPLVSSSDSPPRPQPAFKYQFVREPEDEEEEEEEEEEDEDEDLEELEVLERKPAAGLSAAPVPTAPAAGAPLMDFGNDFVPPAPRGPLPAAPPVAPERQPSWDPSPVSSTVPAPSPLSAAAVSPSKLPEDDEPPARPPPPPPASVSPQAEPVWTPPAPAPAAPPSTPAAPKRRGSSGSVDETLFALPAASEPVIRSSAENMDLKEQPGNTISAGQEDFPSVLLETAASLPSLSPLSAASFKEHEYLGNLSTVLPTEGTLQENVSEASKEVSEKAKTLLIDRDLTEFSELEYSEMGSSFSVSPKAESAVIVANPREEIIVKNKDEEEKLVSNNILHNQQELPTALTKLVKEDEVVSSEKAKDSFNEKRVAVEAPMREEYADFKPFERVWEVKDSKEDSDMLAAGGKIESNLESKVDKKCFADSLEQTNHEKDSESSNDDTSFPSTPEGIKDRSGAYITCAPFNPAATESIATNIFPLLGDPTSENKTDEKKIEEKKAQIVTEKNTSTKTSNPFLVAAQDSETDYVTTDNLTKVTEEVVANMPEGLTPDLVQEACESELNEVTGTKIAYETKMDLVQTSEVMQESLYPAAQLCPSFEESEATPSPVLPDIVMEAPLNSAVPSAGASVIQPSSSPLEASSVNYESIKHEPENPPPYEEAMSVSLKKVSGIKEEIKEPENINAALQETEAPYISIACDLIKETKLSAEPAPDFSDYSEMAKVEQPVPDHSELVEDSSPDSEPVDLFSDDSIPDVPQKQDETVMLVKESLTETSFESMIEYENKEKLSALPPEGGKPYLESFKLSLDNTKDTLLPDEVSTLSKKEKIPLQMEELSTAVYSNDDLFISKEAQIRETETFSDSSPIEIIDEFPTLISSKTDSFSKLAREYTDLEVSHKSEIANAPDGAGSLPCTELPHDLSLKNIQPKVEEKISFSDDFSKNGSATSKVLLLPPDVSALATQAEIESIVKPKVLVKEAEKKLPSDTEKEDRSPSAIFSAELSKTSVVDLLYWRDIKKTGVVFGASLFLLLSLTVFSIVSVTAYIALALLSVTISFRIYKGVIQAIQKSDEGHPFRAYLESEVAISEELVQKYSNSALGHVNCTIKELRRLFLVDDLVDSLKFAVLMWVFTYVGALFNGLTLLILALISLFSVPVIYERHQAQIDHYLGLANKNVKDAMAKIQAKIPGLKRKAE
# Protocol: FIGS. 11A-11C. DKM 3-30 and analogs. (FIG. 11A) Structures of DKM 3-30 and analogs. (FIG. 11B) Gel-based ABPP analysis showing competition side-by-side competition studies of DKM 3-30, YP 1-46, and AMR 1-125 against IA-rhodamine labelling of pure human RTN4. Shown are the 50% inhibitory concentration (IC50) values for each compound. (FIG. 11C) Serum-free cell survival of U2OS (48 h) or SW620 (24 h) cells treated with DMSO vehicle or each compound (50 μM). Data in (C) are presented as mean±sem. Significance is expressed as *p<0.001 compared to vehicle-treated controls.
# Gel-Based ABPP. Gel-based ABPP methods were performed as previously described^24. Recombinant RTN4 (0.06 μg) protein (RTN4-Fisher Scientific) were pre-treated with DMSO or DKM 3-30, respectively, for 1 h at 37° C. in an incubation volume of 50 μL PBS, and were subsequently treated with IAyne (10 μM final concentration) for 30 min at 37° C. CuAAC was performed to append rhodamine-azide onto IAyne probe-labeled proteins. The samples were separated by SDS/PAGE and scanned using a ChemiDoc MP (Bio-Rad Laboratories, Inc). Inhibition of target labeling was assessed by densitometry using ImageStudio Light software.
# [4] = tested on: SW620 colorectal cancer cells; assay: Serum-free cell survival of SW620 cells (Hoescht staining); assay type: cell-based; settings: 48 h, vs DMSO, average of n = 3/group
# [5] = tested on: SW620 colorectal cancer cells; assay: Cell proliferation of SW620 cells (Hoescht staining); assay type: cell-based; settings: 48 h, vs DMSO, average of n = 3/group
# [6] = cysteine-reactive fragment 50 μM
smiles,measurement,setting,value
"C=CC(=O)Nc1ccc(Oc2ccc(Cl)cc2)cc1 [DKM 3-30, N-(4-(4-chlorophenoxy)phenyl)acrylamide]",ER morphology in SW620 cells,[1],suggest alterations in the ER morphology
same,ER morphology in U2OS cells,"[2]; DKM 3-30 50 μM (8 hr, 16 hr, time-lapse), AMR 1-125 1 μM, YP 1-46 50 μM",striking loss of nearly all peripheral ER tubules and an increase in ER that exhibited sheet-like morphology
same,time at which alterations in the ER morphology were evident,"[2]; DKM 3-30 50 μM, time-lapse imaging",0.5-1 hr
same,displacement of IAyne labelling of RTN4,[3],validated this hit
same,viability at 50 µM,"[4]; Homo sapiens, SW-620, cysteine-reactive fragment 50 μM, read-out: SW620 survival Ave",31%
same,SW620 survival Ave,[4]; [6],significantly impaired
same,activity at 50 µM,"[5]; Homo sapiens, SW-620, cysteine-reactive fragment 50 μM, read-out: SW620 proliferation Ave",54%
same,SW620 proliferation Ave,[5]; [6],significantly impaired
